Values of other authors in patent US20210330614A1, “PROCESS FOR MANUFACTURING PHENYLEPHRINE RESINATE PARTICLES; PHENYLEPHRINE RESINATE PARTICLES; AND USE OF PHENYLEPHRINE RESINATE PARTICLES IN PHARMACEUTICAL FORMULATIONS” (Johnson & Johnson Consumer Inc., priority 2014, published 2021).

Key:
[1] = therapeutic dose
[2] = 30 mg dose administered orally over eight hours

Row | excreted unchanged in the urine, % of dose [1] | metabolized to m-hydroxy-phenylglycol-sulfate, % of the dose [2] | metabolized to m-hydroxymandelic acid, % of the dose [2] | metabolized to phenylephrine-glucuronide, % of the dose [2] | metabolized to phenylephrine-sulfate, % of the dose [2] | Compound
1 | Less than 9% |  |  |  |  | CC(=O)Nc1ccc(O)cc1 [acetaminophen, Acetaminophen]
2 |  | 6% | 30% | 12% | 47% | CNC[C@H](O)c1cccc(O)c1.Cl [phenylephrine, (R)-1-(3-hydroxyphenyl)-2-methylaminoethanol]
